For the assay, the target named is Polycomb protein EED (Homo sapiens, UniProt O75530). The assay can be described thus: EED-H3K27Me3 Peptide Competition Binding Assay by AlphaScreen. As for the experimental part: Then 4 μL of detection beads mix was added to the plate and incubate in the dark at the rt for 1 h. The final concentration of donor and acceptor beads was 10 μg/mL for each. […] The data were then fit to a dose response equation using the program Helios (Novartis) to get the IC50 values. […] Compounds were diluted as described in the preceding section, and the assay was performed by adding 12 μL of 10 nM biotin-miniPEG-His6 peptide in the above buffer and incubating for 20 min at rt prior to addition of the beads to 10 μg/mL each. The plates were then incubated for 1 h at rt in dark before being read on EnVison.
Chain of Polycomb protein EED (O75530 whole entry): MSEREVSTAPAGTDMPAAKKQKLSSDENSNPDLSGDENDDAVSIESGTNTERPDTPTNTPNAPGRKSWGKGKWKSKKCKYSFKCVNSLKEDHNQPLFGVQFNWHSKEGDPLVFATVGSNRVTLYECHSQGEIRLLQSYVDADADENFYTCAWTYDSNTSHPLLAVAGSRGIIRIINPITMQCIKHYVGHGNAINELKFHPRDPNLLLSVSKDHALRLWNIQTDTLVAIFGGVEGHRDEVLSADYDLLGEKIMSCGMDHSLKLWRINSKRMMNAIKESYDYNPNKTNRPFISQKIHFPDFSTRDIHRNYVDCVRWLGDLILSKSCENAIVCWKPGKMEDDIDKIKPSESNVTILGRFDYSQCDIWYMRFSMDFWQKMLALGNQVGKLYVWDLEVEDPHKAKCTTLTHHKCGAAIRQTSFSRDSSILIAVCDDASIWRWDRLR

With `CCN1CCN(c2ccc(-c3cnc(NCc4c(F)ccc5c4CCO5)n4cnc(C#N)c34)cn2)CC1` [US10676479, Example 81], the IC50 (commonly the midpoint of a concentration-inhibition curve) was 24.9 nM.
`Cc1ncccc1-c1cnc(NCc2c(F)ccc3c2CCO3)n2cnc(C(=O)NC3COC3)c12` [US10676479, Example 106]: the IC50 amounted to 7 nM.
Turning to `CS(=O)(=O)c1ccc(-c2cnc(NCc3c(F)ccc4c3CCO4)n3cnc(-c4ccccc4)c23)cc1` [US10676479, Example 110], the IC50 was found to be 8.1 nM.

The values are drawn from BindingDB's records for patent US10676479 (Novartis AG, 2020).
